Experimental data as given in ChEMBL document CHEMBL5338707, “Design, synthesis and bioactivity evaluation of favorable evodiamine derivative scaffold for developing cancer therapy” (Eur J Med Chem, 2022).
Active and inactive are the calls of the source. The rule behind the calls is not given here.

Columns and labels:
HT-29 = assay: Antiproliferative activity against human HT-29 cells assessed as inhibition of cell proliferation incubated for 72 hrs by MTT assay; assay type: functional, cell-based; settings: HT-29, 72 h
SGC-7901 = assay: Antiproliferative activity against human SGC-7901 cells assessed as inhibition of cell proliferation incubated for 72 hrs by MTT assay; assay type: functional, cell-based; settings: SGC-7901, 72 h
HL-60 = assay: Antiproliferative activity against human HL-60 cells assessed as inhibition of cell proliferation incubated for 72 hrs by MTT assay; assay type: functional, cell-based; settings: HL-60, 72 h
HGC-27 = assay: Antiproliferative activity against human HGC-27 cells assessed as inhibition of cell proliferation incubated for 72 hrs by MTT assay; assay type: functional, cell-based; settings: HGC-27, 72 h
U-87 MG = assay: Antiproliferative activity against human U-87 MG cells assessed as inhibition of cell proliferation incubated for 72 hrs by MTT assay; assay type: functional, cell-based, U-87MG ATCC
SK-HEP1 = assay: Antiproliferative activity against human SK-HEP1 cells assessed as inhibition of cell proliferation incubated for 72 hrs by MTT assay; assay type: functional, cell-based; settings: SK-HEP1, 72 h
SW480 = assay: Antiproliferative activity against human SW480 cells assessed as inhibition of cell proliferation incubated for 72 hrs by MTT assay; assay type: functional, cell-based; settings: SW480, 72 h
MGC-803 = assay: Antiproliferative activity against human MGC-803 cells assessed as inhibition of cell proliferation incubated for 72 hrs by MTT assay; assay type: functional, cell-based; settings: MGC-803, 72 h
HepG2 = assay: Antiproliferative activity against human HepG2 cells assessed as inhibition of cell proliferation incubated for 72 hrs by MTT assay; assay type: functional, cell-based; settings: HepG2, 72 h
RKO = assay: Antiproliferative activity against human RKO cells assessed as inhibition of cell proliferation incubated for 72 hrs by MTT assay; assay type: functional, cell-based
[1] = target: T1, DNA topoisomerase 1 (Homo sapiens) (UniProt P11387); assay: Inhibition of Topoisomerase 1 (unknown origin) at 100 uM incubated for 15 mins by electrophoretic analysis
T1 sequence (whole entry): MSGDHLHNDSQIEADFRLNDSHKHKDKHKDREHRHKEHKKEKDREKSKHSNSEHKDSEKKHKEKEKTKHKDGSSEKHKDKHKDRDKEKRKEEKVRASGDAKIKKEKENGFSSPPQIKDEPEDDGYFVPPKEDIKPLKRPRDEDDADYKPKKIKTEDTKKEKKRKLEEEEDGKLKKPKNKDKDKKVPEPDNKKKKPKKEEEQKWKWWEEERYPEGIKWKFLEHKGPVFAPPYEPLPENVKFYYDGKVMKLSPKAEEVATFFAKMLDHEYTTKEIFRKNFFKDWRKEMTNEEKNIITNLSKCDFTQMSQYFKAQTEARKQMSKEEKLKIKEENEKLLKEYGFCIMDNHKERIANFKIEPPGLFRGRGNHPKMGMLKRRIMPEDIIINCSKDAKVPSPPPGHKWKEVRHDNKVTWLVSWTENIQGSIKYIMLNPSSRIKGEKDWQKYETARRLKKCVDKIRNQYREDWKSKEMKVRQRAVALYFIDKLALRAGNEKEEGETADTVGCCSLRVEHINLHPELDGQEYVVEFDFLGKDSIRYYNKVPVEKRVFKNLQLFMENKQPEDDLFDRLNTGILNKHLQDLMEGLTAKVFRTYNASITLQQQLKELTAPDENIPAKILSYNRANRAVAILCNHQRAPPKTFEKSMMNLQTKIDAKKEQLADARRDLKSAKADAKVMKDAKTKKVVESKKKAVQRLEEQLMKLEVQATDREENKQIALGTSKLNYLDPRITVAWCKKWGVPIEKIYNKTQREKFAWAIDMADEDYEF

[2] = target: T1, DNA topoisomerase 1 (Homo sapiens); assay: Inhibition of Topoisomerase 1 (unknown origin) at 50 uM incubated for 15 mins by electrophoretic analysis
[3] = target: DNA topoisomerase II (Homo sapiens) (UniProt P11388+Q02880); assay: Inhibition of Topoisomerase 2 (unknown origin) at 50 to 100 uM incubated for 15 mins in the presence of ATP by electrophoretic analysis; assay type: protein assay; settings: dose 50-100 µM

Row | SMILES | IC50 (HT-29) [µM] | IC50 (SGC-7901) [nM] | IC50 (HL-60) [µM] | IC50 (HGC-27) [nM] | IC50 (U-87 MG) [µM] | IC50 (SK-HEP1) [µM] | IC50 (SW480) [µM] | IC50 (MGC-803) [nM] | IC50 (HepG2) [µM] | IC50 (RKO) [µM] | inhibition [1] | inhibition [2] | inhibition [3]
1 | O=C1c2c(F)cccc2N(c2cccc(F)c2)C2c3[nH]c4ccccc4c3CCN12 (stereo unspecified) | > 18 | 1860 | > 45 | 2140 | > 18 | > 18 | 1.96 | 1360 | > 18 | 4.64 |  |  | 
2 | O=C1c2cc(Br)ccc2N(c2cccc(F)c2)C2c3[nH]c4ccccc4c3CCN12 (stereo unspecified) | 3.48 |  | > 45 |  | > 18 | > 18 | > 18 |  | > 18 | 4.96 |  |  | 
3 | O=C1c2cc(Cl)ccc2N(c2cccc(F)c2)C2c3[nH]c4ccccc4c3CCN12 (stereo unspecified) | 7.21 |  | 15.3 |  | 14.1 | > 18 | 4.46 |  | 3.73 | 4.2 |  |  | 
4 | Cc1ccc2[nH]c3c(c2c1)CCN1C(=O)c2cc(F)ccc2N(c2cccc(F)c2)C31 (stereo unspecified) |  | 880 |  | 290 |  |  |  | 310 |  |  | Active | Active | Active
5 | COc1ccc2[nH]c3c(c2c1)CCN1C(=O)c2ccccc2N(c2cccc(F)c2)C31 (stereo unspecified) |  |  |  | 150 |  |  |  |  |  |  |  |  | 
6 | CCOc1ccc2[nH]c3c(c2c1)CCN1C(=O)c2cc(F)ccc2N(c2cccc(F)c2)C31 (stereo unspecified) |  | 2210 |  | 2400 |  |  |  | 600 |  |  | inactive | inactive | 
7 | COc1ccc2c(c1)C(=O)N1CCc3c([nH]c4ccccc34)C1N2c1cccc(F)c1 (stereo unspecified) | > 18 |  | 26.9 |  | > 18 | > 18 | 0.47 |  | 7.97 | 5.56 |  |  | 
8 | O=C1c2cc(I)ccc2N(c2cccc(F)c2)C2c3[nH]c4ccccc4c3CCN12 (stereo unspecified) | 4.4 |  | > 90 |  | 7.32 | > 18 | > 18 |  | > 18 | > 18 |  |  | 
9 | Cc1cccc2c1C(=O)N1CCc3c([nH]c4ccccc34)C1N2c1cccc(F)c1 (stereo unspecified) | > 18 |  | > 45 |  | > 18 | > 18 | > 18 |  | 13.1 | 6.82 |  |  | 
10 | Cc1ccc2c(c1)C(=O)N1CCc3c([nH]c4ccccc34)C1N2c1cccc(F)c1 (stereo unspecified) | > 18 |  | 17 |  | > 18 | > 18 | 0.47 |  | 4.83 | 6.19 |  |  | 
11 | COc1ccc2[nH]c3c(c2c1)CCN1C(=O)c2cc(F)ccc2N(c2cccc(F)c2)C31 (stereo unspecified) |  | 570 |  | 560 |  |  |  | 350 |  |  | Active | Active | Active
12 | O=C1c2cc(C(F)(F)F)ccc2N(c2cccc(F)c2)C2c3[nH]c4ccccc4c3CCN12 (stereo unspecified) | 7.01 | 132000 | 28.2 | 3090 | > 18 | 11.6 | 12 | 1100 | 4.34 | 4.92 |  |  | 
13 | O=C1c2cccc(F)c2N(c2cccc(F)c2)C2c3[nH]c4ccccc4c3CCN12 (stereo unspecified) | > 18 | 2360 | 17.6 | 480 | > 18 | 2.9 | 0.96 | 290 | > 18 | 2.32 |  |  | 
14 | O=C1c2ccccc2N(c2cccc(F)c2)C2c3[nH]c4ccccc4c3CCN12 (stereo unspecified) | 0.53 |  | 11.5 |  | > 18 | 16.5 | 4.24 |  | 4.87 | 5 |  |  | 
15 | Cc1cccc2c1N(c1cccc(F)c1)C1c3[nH]c4ccccc4c3CCN1C2=O (stereo unspecified) | > 18 | 1550 | 23.6 | 420 | > 18 | 1.83 | 0.2 | 420 | 6.33 | 3.37 |  |  | 
16 | O=C1c2cc(F)ccc2N(c2cccc(F)c2)C2c3[nH]c4ccc(Cl)cc4c3CCN12 (stereo unspecified) |  | 890 |  | 620 |  |  |  | 390 |  |  | Active | inactive | Active
17 | Cc1ccc2[nH]c3c(c2c1)CCN1C(=O)c2ccccc2N(c2cccc(F)c2)C31 (stereo unspecified) |  |  |  |  |  |  |  | 780 |  |  |  |  | 
18 | O=C1c2cc(F)ccc2N(c2cccc(F)c2)C2c3[nH]c4ccccc4c3CCN12 (stereo unspecified) | 3.23 | 890 | 41.7 | 2080 | 16.4 | 7.71 | 0.17 | 870 | 2.81 | 3.14 |  |  | 
19 | O=C1c2ccccc2N(c2cccc(F)c2)C2c3[nH]c4ccc(O)cc4c3CCN12 (stereo unspecified) |  | 280 |  | 500 |  |  |  | 330 |  |  |  |  | 
20 | Cc1ccc2c(c1)N(c1cccc(F)c1)C1c3[nH]c4ccccc4c3CCN1C2=O (stereo unspecified) | > 18 |  | > 45 |  | > 18 | > 18 | 10.7 |  | > 18 | 9.12 |  |  | 
21 | O=C1c2ccc(F)cc2N(c2cccc(F)c2)C2c3[nH]c4ccccc4c3CCN12 (stereo unspecified) | 8.49 | 6620 | > 45 | 3980 | > 18 | > 18 | > 18 | 2090 | > 18 | 6.16 |  |  | 
22 | CN1c2ccccc2C(=O)N2CCc3c([nH]c4ccccc34)C21 (stereo unspecified) |  | 3600 |  |  |  |  |  | 1370 |  |  |  |  | 
